# Assay results reported in ChEMBL document CHEMBL6074711, “Design, Synthesis, and Activity Evaluation of C-23-Modified 5-O-Mycaminosyltylonolide Derivatives” (ACS Med Chem Lett, 2024).
# Key:
# [1] = tested on: Stenotrophomonas maltophilia; assay: Antibacterial activity against Stenotrophomonas maltophilia ATCC17808 incubated for 16 to 20 hrs by broth microdilution method; type: functional; settings: time 16-20 hrs
# [2] = tested on: Escherichia coli; assay: Antibacterial activity against drug-resistant Escherichia coli clinical isolate 1322 incubated for 16 to 20 hrs by broth microdilution method; type: functional; settings: time 16-20 hrs
# [3] = tested on: Enterococcus faecalis; assay: Bactericidal activity against Enterococcus faecalis ATCC29212 incubated for 20 to 24 hrs; type: functional; settings: time 20-24 hrs
# [4] = tested on: Stenotrophomonas maltophilia; assay: Antibacterial activity against Stenotrophomonas maltophilia ATCC17808 incubated for 20 to 24 hrs; type: functional; settings: time 20-24 hrs
# [5] = tested on: Staphylococcus aureus; assay: Antibacterial activity against Staphylococcus aureus ATCC25923 incubated for 16 to 20 hrs by broth microdilution method; type: functional; settings: time 16-20 hrs
# [6] = tested on: Escherichia coli; assay: Antibacterial activity against drug-resistant Escherichia coli clinical isolate 1333 incubated for 16 to 20 hrs by broth microdilution method; type: functional; settings: time 16-20 hrs
# [7] = tested on: Escherichia coli; assay: Ratio of MBC to MIC for Escherichia coli ATCC25922 incubated for 20 to 24 hrs; type: functional; settings: time 20-24 hrs
# [8] = tested on: Escherichia coli; assay: Antibacterial activity against Escherichia coli ATCC25922 incubated for 16 to 20 hrs by broth microdilution method; type: functional; settings: time 16-20 hrs
# [9] = tested on: Staphylococcus aureus; assay: Bactericidal activity against Staphylococcus aureus ATCC25923 incubated for 20 to 24 hrs; type: functional; settings: time 20-24 hrs
# [10] = tested on: Escherichia coli; assay: Antibacterial activity against Escherichia coli ATCC25922 incubated for 20 to 24 hrs; type: functional; settings: time 20-24 hrs
# [11] = tested on: Enterococcus faecalis; assay: Ratio of MBC to MIC for Enterococcus faecalis ATCC29212 incubated for 20 to 24 hrs; type: functional; settings: time 20-24 hrs
# [12] = tested on: Staphylococcus aureus; assay: Antibacterial activity against Staphylococcus aureus ATCC25923 incubated for 20 to 24 hrs; type: functional; settings: time 20-24 hrs
# [13] = tested on: Escherichia coli; assay: Bactericidal activity against Escherichia coli ATCC25922 incubated for 20 to 24 hrs; type: functional; settings: time 20-24 hrs
# [14] = tested on: Stenotrophomonas maltophilia; assay: Ratio of MBC to MIC for Stenotrophomonas maltophilia ATCC17808 incubated for 20 to 24 hrs; type: functional; settings: time 20-24 hrs
# [15] = tested on: Staphylococcus aureus; assay: Antibacterial activity against drug-resistant Staphylococcus aureus clinical isolate M20 incubated for 16 to 20 hrs by broth microdilution method; type: functional; settings: time 16-20 hrs
# [16] = tested on: Stenotrophomonas maltophilia; assay: Bactericidal activity against Stenotrophomonas maltophilia ATCC17808 incubated for 20 to 24 hrs; type: functional; settings: time 20-24 hrs
# [17] = tested on: Enterococcus faecalis; assay: Antibacterial activity against Enterococcus faecalis ATCC29212 incubated for 16 to 20 hrs by broth microdilution method; type: functional; settings: time 16-20 hrs
# [18] = tested on: Enterococcus faecalis; assay: Antibacterial activity against Enterococcus faecalis ATCC29212 incubated for 20 to 24 hrs; type: functional; settings: time 20-24 hrs
# [19] = tested on: Staphylococcus aureus; assay: Antibacterial activity against Staphylococcus aureus ATCC25923 at pH 7.80; type: functional
# [20] = tested on: Staphylococcus aureus; assay: Induction of resistance development in Staphylococcus aureus ATCC25923 at 0.5 times MIC treated daily with continuous passaging measured for 20 passages by absorbance based assay; type: functional, organism-based; settings: time 20.0 day
# [21] = Cytotoxicity against mouse HT-22 cells incubated for 72 hrs by MTT assay; type: toxicity, cell-based
# [22] = Selectivity index, ratio of IC50 for mouse HT-22 cells to MIC for methicillin-resistant Staphylococcus aureus; type: toxicity, cell-based
# [23] = Toxicity in Kunming mouse assessed as histopathological changes in kidney at 80 mg/kg/day, IG measured for 1 week; type: organism-based; settings: in vivo, po, 168 h, time 1 weeks
# [24] = tested on: Staphylococcus aureus; assay: Induction of resistance development in Staphylococcus aureus ATCC25923 treated daily with continuous passaging measured after 7 passages by absorbance based assay; type: functional; settings: ATCC25923, 168 h, time 7 day
# [25] = tested on: Escherichia coli; assay: Antibacterial activity against Escherichia coli ATCC25922 at pH 6.80; type: functional
# [26] = tested on: Escherichia coli; assay: Antibacterial activity against Escherichia coli ATCC25922 at pH 7; type: functional
# [27] = tested on: Staphylococcus aureus; assay: Antibacterial activity against Staphylococcus aureus ATCC25923 under 10^7 CFU/ml of bacterial inoculum culture by absorbance based assay; type: functional
# [28] = tested on: Escherichia coli; assay: Antibacterial activity against Escherichia coli ATCC25922 at pH 7.20; type: functional
# [29] = tested on: Escherichia coli; assay: Induction of resistance development in Escherichia coli ATCC25922 treated daily with continuous passaging measured after 19 passages by absorbance based assay; type: functional; settings: ATCC25922, 456 h, time 19 day
# [30] = tested on: Staphylococcus aureus; assay: Antibacterial activity against Staphylococcus aureus ATCC25923 under 10^4 CFU/ml of bacterial inoculum culture by absorbance based assay; type: functional
# [31] = tested on: Escherichia coli; assay: Antibacterial activity against Escherichia coli ATCC25922 under 10^4 CFU/ml of bacterial inoculum culture by absorbance based assay; type: functional
# [32] = tested on: Staphylococcus aureus; assay: Antibacterial activity against Staphylococcus aureus ATCC25923 at pH 7.60; type: functional
# [33] = tested on: Staphylococcus aureus; assay: Antibacterial activity against Staphylococcus aureus ATCC25923 at pH 7.40; type: functional
# [34] = tested on: Staphylococcus aureus; assay: Antibacterial activity against Staphylococcus aureus ATCC25923 at pH 7.20; type: functional
# [35] = tested on: Escherichia coli; assay: Antibacterial activity against Escherichia coli ATCC25922 under 10^6 CFU/ml of bacterial inoculum culture by absorbance based assay; type: functional
# [36] = tested on: Staphylococcus aureus; assay: Bactericidal activity against Staphylococcus aureus ATCC25923 at MIC incubated for 10 to 12 hrs by time-kill assay relative to control; type: functional; settings: time 10-12 hrs
# [37] = tested on: Staphylococcus aureus; assay: Antibacterial activity against Staphylococcus aureus ATCC25923 at pH 7; type: functional
# [38] = Toxicity in Kunming mouse assessed as histopathological changes in lung at 80 mg/kg/day, IG measured for 1 week; type: organism-based; settings: in vivo, po, 168 h, time 1 weeks
# [39] = tested on: Staphylococcus aureus; assay: Antibacterial activity against Staphylococcus aureus ATCC25923 under 10^6 CFU/ml of bacterial inoculum culture by absorbance based assay; type: functional
# [40] = tested on: Staphylococcus aureus; assay: Antibacterial activity against Staphylococcus aureus ATCC25923 at pH 6.80; type: functional
# [41] = tested on: Staphylococcus aureus; assay: Ratio of MBC to MIC for Staphylococcus aureus ATCC25923 incubated for 20 to 24 hrs; type: functional; settings: time 20-24 hrs
# [42] = tested on: Escherichia coli; assay: Induction of resistance development in Escherichia coli ATCC25922 treated daily with continuous passaging measured after 12 passages by absorbance based assay; type: functional; settings: ATCC25922, 288 h, time 12 day
# [43] = tested on: Escherichia coli; assay: Induction of resistance development in Escherichia coli ATCC25922 treated daily with continuous passaging measured after 8 passages by absorbance based assay; type: functional; settings: ATCC25922, 192 h, time 8 day
# [44] = tested on: Escherichia coli; assay: Induction of resistance development in Escherichia coli ATCC25922 treated daily with continuous passaging measured for 20 passages by absorbance based assay; type: functional, organism-based; settings: time 20.0 day
# [45] = tested on: Staphylococcus aureus; assay: Antibacterial activity against Staphylococcus aureus ATCC25923 under 10^5 CFU/ml of bacterial inoculum culture by absorbance based assay; type: functional
# [46] = tested on: Escherichia coli; assay: Bactericidal activity against Escherichia coli ATCC25922 at MIC incubated for 5 hrs by time-kill assay relative to control; type: functional
# [47] = tested on: Escherichia coli; assay: Antibacterial activity against Escherichia coli ATCC25922 at pH 7.40; type: functional
# [48] = tested on: Escherichia coli; assay: Antibacterial activity against Escherichia coli ATCC25922 at pH 7.80; type: functional
# [49] = tested on: Staphylococcus aureus; assay: Induction of resistance development in Staphylococcus aureus ATCC25923 treated daily with continuous passaging measured after 13 passages by absorbance based assay; type: functional; settings: ATCC25923, 312 h, time 13 day
# [50] = tested on: Escherichia coli; assay: Antibacterial activity against Escherichia coli ATCC25922 at pH 7.60; type: functional
# [51] = Toxicity in Kunming mouse assessed as histopathological changes in heart at 80 mg/kg/day, IG measured for 1 week; type: organism-based; settings: in vivo, po, 168 h, time 1 weeks
# [52] = tested on: Escherichia coli; assay: Antibacterial activity against Escherichia coli ATCC25922 under 10^5 CFU/ml of bacterial inoculum culture by absorbance based assay; type: functional
# [53] = tested on: Escherichia coli; assay: Antibacterial activity against Escherichia coli ATCC25922 under 10^7 CFU/ml of bacterial inoculum culture by absorbance based assay; type: functional
# [54] = Toxicity in Kunming mouse assessed as histopathological changes in liver at 80 mg/kg/day, IG measured for 1 week; type: organism-based; settings: in vivo, po, 168 h, time 1 weeks
# [55] = Toxicity in Kunming mouse assessed as histopathological changes in spleen at 80 mg/kg/day, IG measured for 1 week; type: organism-based; settings: in vivo, po, 168 h, time 1 weeks
structure (smiles),measurement,setting,value
CC[C@H]1OC(=O)C[C@@H](O)[C@H](C)[C@@H](O[C@@H]2O[C@H](C)[C@@H](O)[C@H](N(C)C)[C@H]2O)[C@@H](CCN(C)Cc2cn(-c3cnc4ccccc4c3)nn2)C[C@@H](C)C(=O)/C=C/C(C)=C/[C@@H]1CN(C)Cc1ccccc1,MIC,[1],1 µg/mL
same,MIC,[2],1 µg/mL
same,MBC,[3],8 µg/mL
same,MIC,[4],4 µg/mL
same,MIC,[5],0.5 µg/mL
same,MIC,[6],2 µg/mL
same,Ratio,[7],4
same,MIC,[8],1 µg/mL
same,MBC,[9],> 32 µg/mL
same,MIC,[10],1 µg/mL
same,Ratio,[11],2
same,MIC,[12],16 µg/mL
same,MBC,[13],4 µg/mL
same,Ratio,[14],4
same,MIC,[15],0.5 µg/mL
same,MBC,[16],16 µg/mL
same,MIC,[17],1 µg/mL
same,MIC,[18],4 µg/mL
CC[C@H]1OC(=O)C[C@@H](O)[C@H](C)[C@@H](O[C@@H]2O[C@H](C)[C@@H](O)[C@H](N(C)C)[C@H]2O)[C@@H](CCN(C)Cc2cn(-c3cnc4ccccc4c3)nn2)C[C@@H](C)C(=O)/C=C/C(C)=C/[C@@H]1CNCc1cccc(C)c1,MIC,[19],0.125 µg/mL
same,Activity,[20],Not active; Compound Induced Resistance Less Rapidly Than That Of Control Drug Linezolid
same,IC50 at 72 h,[21],130 µg/mL
same,MIC,[1],2 µg/mL
same,MIC,[2],0.5 µg/mL
same,MBC,[3],8 µg/mL
same,selectivity ratio,[22],130
same,Activity,[23],Non-toxic
same,MIC,[4],1 µg/mL
same,MIC,[24],1 µg/mL
same,MIC,[25],0.5 µg/mL
same,MIC,[26],0.5 µg/mL
same,MIC,[27],0.5 µg/mL
same,MIC,[5],0.5 µg/mL
same,MIC,[28],0.5 µg/mL
same,MIC,[6],1 µg/mL
same,MIC,[29],4 µg/mL
same,MIC,[30],0.125 µg/mL
same,Ratio,[7],4
same,MIC,[31],0.125 µg/mL
same,MIC,[32],0.25 µg/mL
same,MIC,[8],0.5 µg/mL
same,MIC,[33],0.5 µg/mL
same,MBC,[9],2 µg/mL
same,MIC,[34],0.5 µg/mL
same,MIC,[10],1 µg/mL
same,MIC,[35],0.5 µg/mL
same,Activity,[36],100%
same,Ratio,[11],4
same,MIC,[37],0.5 µg/mL
same,Activity,[38],Non-toxic
same,MIC,[39],0.25 µg/mL
same,MIC,[40],1 µg/mL
same,Ratio,[41],2
same,MIC,[12],0.5 µg/mL
same,MIC,[42],2 µg/mL
same,MIC,[43],1 µg/mL
same,Activity,[44],Not active; Compound Induced Resistance More Slowly Than Control Drug Florfenicol
same,MBC,[13],4 µg/mL
same,MIC,[45],0.25 µg/mL
same,Activity,[46],100%
same,MIC,[47],0.25 µg/mL
same,MIC,[48],0.125 µg/mL
same,Ratio,[14],8
same,MIC,[49],2 µg/mL
same,MIC,[15],0.5 µg/mL
same,MIC,[50],0.125 µg/mL
same,MBC,[16],8 µg/mL
same,Activity,[51],Non-toxic
same,MIC,[52],0.25 µg/mL
same,MIC,[17],1 µg/mL
same,MIC,[53],0.5 µg/mL
same,MIC,[18],1 µg/mL
same,Activity,[54],Non-toxic
same,Activity,[55],Non-toxic
